The test system of data set [1] is CYP1A1 activity (EROD) in IGROV-1 cells. The experiment in a line: EROD activity in homogenates of treated IGROV-1 cells. Format: cell-based, human. The conditions noted are these: IGROV-1 cells treated 24 h; biphasic dose response. The procedure: A sensitive and rapid fluorometric assay was used to measure EROD activity ([Burke et al, 1994]). Incubation mixtures (total 1 ml) consisted of 100 mM Tris-HCl (pH 7.4), 50 μM MgCl2, 100 μM 7-ethoxyresorufin and 100 μl cell homogenate. Homogenates were prepared following treatment of cells for 24 h with compounds 1, 2, 2a, 2b, 3, 3a, 3b, 4, 4a and 4b or vehicle alone and protein content determined (n=3). Thus induction of ethoxyresorufin O-deethylation by agents under study, catalysed by CYP1A1 activity, could be determined. Alternatively, microsomes expressing recombinant CYP1A1 (0.1 mg ml^−1) provided the enzyme source for EROD catalysis, in the presence or absence of drug, in order to determine inhibition of CYP1A1 activity by compounds 1, 2, 2a, 2b, 3, 3a, 3b, 4, 4a and 4b. Incubation mixtures were pre-incubated for 5 min at 37°C before initiation of reaction by addition of NADPH (500 μM). Following further incubations at 37°C (30 min for cell homogenates, 15 min for CYP1A1 microsomes), reactions were terminated by addition of 3 ml ice-cold acetonitrile. […] Fluorescence was read on a Perkin-Elmer LS-5 luminescence spectrometer (excitation, 530 nm; emission 585 nm). Estimation of resorufin reaction product (pmoles mg^−1 protein, pmoles 100 μg^−1 microsomes), as a measure of CYP1A1 activity, was determined following performance of a resorufin standard curve.

For a further data set, the system named is OVCAR-4. Put plainly: NCI in vitro cytotoxicity assay (SRB), OVCAR-4. Format: cell-based. The conditions noted are these: Homo sapiens, 48 h exposure, sulforhodamine B assay, mean graph, read-out: Log10 GI50 (OVCAR-4) (converted). The procedure: (§1) Cell culture and drug application procedures have been described previously ([Boyd and Paull, 1995]). Briefly, cell lines were inoculated into a series of 96-well microtiter plates, with varied seeding densities depending on growth characteristics of each cell line. Following a 24 h drug free incubation, test agents were added at five 10-fold dilutions with a maximum concentration of 100 μM. Cellular protein levels were determined after 48 h drug exposure by sulphorhodamine B colorimetry.

The test system of another data set is MCF-7 cells. Put plainly: Prodrug uptake, conversion and metabolism (HPLC of media), MCF-7. The note with it: prodrug 10 μM, days 1–7. Format: in vitro ADME, human. The procedure:
MCF-7 cells were seeded into 25 ml flasks at appropriate densities (5×10^5–5×10^6). After 24 h, medium was changed and drug introduced at a final concentration of 10 μM. Media samples, collected from flasks at time zero and 24 h intervals, were mixed with 1.5-fold volumes of high performance liquid chromatography (HPLC) grade acetonitrile to precipitate protein and centrifuged at 14 000 g for 5 min. Supernatants (600 μl) were mixed with 400 μl 10% acetonitrile in 1% acetic acid and analysed by HPLC. The system consisted of Beckman System Gold equipment (solvent module 128, autosampler 507e and multiple wavelength UV detector 168). Separation of parent compounds and biotransformation products was effected at room temperature on a Phenomenex Aqua C18 reversed-phase column (150×4.6 mm). The mobile phase was formed by increasing, then decreasing the acetonitrile concentration in 1% acetic acid over 20 min by mixing two solutions: acetonitrile-water-acetic acid (10 : 90 : 1, v v^−1) and acetonitrile-water-acetic acid (80 : 20 : 1 v v^−1) and delivered at a flow rate of 1 ml min^−1. Compounds were detected at 324 nm.

A further data set has as its system CCRF-CEM. Put plainly: NCI in vitro cytotoxicity assay (SRB), CCRF-CEM. Format: cell-based. The note with it: Homo sapiens, 48 h exposure, sulforhodamine B assay, mean graph, read-out: Log10 GI50 (CCRF-CEM) (converted). On the procedure: as §1
Another data set relates to KM12. Put plainly: NCI in vitro cytotoxicity assay (SRB), KM12. The conditions noted are these: Homo sapiens, 48 h exposure, sulforhodamine B assay, mean graph, read-out: Log10 GI50 (KM12) (converted). Format: cell-based. On the procedure:
as §1

Details of data set [2]: method as in Bradshaw et al, 2002. The note with it: in vivo, compound 2 regenerated from lysylamide prodrug compound 2b; ref Bradshaw et al, 2002; cited from earlier work.

For `Cc1cc(-c2nc3cc(F)ccc3s2)ccc1NC(=O)[C@@H](N)CCCCN` [Compound 2b], the “Concentration giving maximum induction of EROD activity” value in data set [1] was 1000 nM. For the same compound, the GI50 with OVCAR-4 was 2.04 µM.
Take `Cc1cc(-c2nc3cc(F)ccc3s2)ccc1N` [Compound 2, 2-(4-Amino-3-methylphenyl)-5-fluorobenzothiazole]: the “Biotransformation products of liberated parent amine in media” value in the data set on MCF-7 cells was “No biotransformation products could be detected”. Also, the GI50 was 1.23 µM with CCRF-CEM and 69.2 µM in the data set with KM12. The “Persistence of plasma concentrations sufficient for cytocidal activity against human mammary carcinoma cells” value in data set [2] is reported as > 6 h.

Source of the values: PMC2375326, “In vitro evaluation of amino acid prodrugs of novel antitumour 2-(4-amino-3-methylphenyl)benzothiazoles” (British Journal of Cancer, 2002).
